The source made the active and inactive calls. The rule behind the calls is not given here.
Experiments:
[1] = target: T1, Ribonuclease pancreatic (Homo sapiens) (UniProt P07998); test: Inhibition of RNase A assessed as degradation of 28s and 18s rRNA at 0.412 mM after 6 hrs by agarose gel based assay
T1 sequence (whole entry): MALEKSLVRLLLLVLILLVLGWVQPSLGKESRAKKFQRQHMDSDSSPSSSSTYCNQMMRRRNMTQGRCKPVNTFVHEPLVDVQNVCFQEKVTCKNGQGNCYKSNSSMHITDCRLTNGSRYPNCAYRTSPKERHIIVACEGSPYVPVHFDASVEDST

[2] = target: T1, Ribonuclease pancreatic (Homo sapiens); test: Inhibition of RNase A assessed as degradation of 28s and 18s rRNA at 0.476 mM after 6 hrs by agarose gel based assay

Activity [1]	Activity [2]	Structure (SMILES)
inactive	–	CCOC(=O)Cn1c(=O)c(C)cn(CCn2cc(CO[C@@H]3Cc4c(O)cc(O)cc4O[C@@H]3c3ccc(O)c(O)c3)nn2)c1=O
inactive	–	CCOC(=O)Cn1c(=O)c(C)cn(CCn2cc(CO[C@H]3Cc4c(O)cc(O)cc4O[C@@H]3c3ccc(O)c(O)c3)nn2)c1=O
–	Active	Nc1ncnc2c1ncn2CCn1cc(CO[C@@H]2Cc3c(O)cc(O)cc3O[C@@H]2c2ccc(O)c(O)c2)nn1
–	Active	Nc1ncnc2c1ncn2CCn1cc(CO[C@H]2Cc3c(O)cc(O)cc3O[C@@H]2c2ccc(O)c(O)c2)nn1

— ChEMBL document CHEMBL1152246, “Design, synthesis and RNase A inhibition activity of catechin and epicatechin and nucleobase chimeric molecules” (Bioorg Med Chem Lett, 2008)
